Measured values published in PubChem BioAssay (NCI).
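Five concentrations, 48 hours, 96-well plates. At the TGI there is no net growth.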

Tests used:
Assay in all cases: NCI anticancer screen, dose series, 48 h
UACC-257 melanoma = tested on: UACC-257 melanoma
MOLT-4 leukemia = tested on: MOLT-4 leukemia
NCI-H460 lung = tested on: NCI-H460 lung
K-562 leukemia = tested on: K-562 leukemia
MDA-N = tested on: MDA-N
COLO 205 colon = tested on: COLO 205 colon
HT29 colon = tested on: HT29 colon
IGROV1 ovarian = tested on: IGROV1 ovarian
OVCAR-3 ovarian = tested on: OVCAR-3 ovarian
UACC-62 melanoma = tested on: UACC-62 melanoma
A549 NSCLC = tested on: A549 NSCLC
ACHN renal = tested on: ACHN renal
HCT-116 colon = tested on: HCT-116 colon
MALME-3M melanoma = tested on: MALME-3M melanoma
U251 CNS = tested on: U251 CNS
HS 578T breast = tested on: HS 578T breast
NCI-H23 lung = tested on: NCI-H23 lung

Structure (SMILES)	TGI (UACC-257 melanoma) [µM]	TGI (MOLT-4 leukemia) [µM]	TGI (NCI-H460 lung) [µM]	TGI (K-562 leukemia) [µM]	TGI (MDA-N) [µM]	TGI (COLO 205 colon) [µM]	TGI (HT29 colon) [µM]	TGI (IGROV1 ovarian) [µM]	TGI (OVCAR-3 ovarian) [µM]	TGI (UACC-62 melanoma) [µM]	TGI (A549 NSCLC) [µM]	TGI (ACHN renal) [µM]	TGI (HCT-116 colon) [µM]	TGI (MALME-3M melanoma) [µM]	TGI (U251 CNS) [µM]	TGI (HS 578T breast) [µM]	TGI (NCI-H23 lung) [µM]
CC1=NN(C(=O)CC(=O)Nc2ccccc2C)C(=O)C1N=Nc1ccc(S(=O)(=O)c2ccc(N=NC3C(=O)N(C(=O)CC(=O)Nc4ccccc4C)N=C3C)cc2)cc1 (centres undefined)	> 100	> 100	> 100	> 100	> 100	> 100	> 100	> 100	> 100	> 100	> 100	> 100	> 100	> 100	> 100	> 100	> 100
CC(=O)c1c2c(cc3c1CC1(Cc4cc5c(cc4C1=O)CCC5)C3)CCC2 (centres undefined)	> 100	> 100	> 100	> 100	> 100	> 100	> 100	> 100	> 100	> 100	> 100	> 100	> 100	> 100	> 100	> 100	> 100
CSc1c(CC(=O)O)n(Cc2ccccc2)c2ccccc12	> 100	> 100	> 100	> 100	> 100	> 100	> 100	> 100	> 100	> 100	> 100	> 100	> 100	> 100	> 100	> 100	> 100
COc1c(C(=O)/C(=N/Nc2ccccc2)C(C)=O)c(O)c(OC)c2occc12	> 100	> 100	> 100	> 100	> 100	> 100	> 100	> 100	> 100	> 100	> 100	> 100	> 100	92	> 100	> 100	> 100
C[C@@H](C(=O)O)c1ccc(-c2ccccc2)c(F)c1	> 100	> 100	> 100	> 100	> 100	> 100	> 100	> 100	> 100	> 100	> 100	> 100	> 100	> 100	> 100	> 100	> 100
CC/C(Cl)=N\OC(=O)Nc1ccccc1OC(F)(F)F	32.8	4.77	44.2	4.55	22.9	3.79	44.4	30.8	22.2	37.1	51.5	3.69	27	17.6	> 57.8	> 68.2	45.8
Nc1ccn([C@H]2CO[C@@H](CO)O2)c(=O)n1	> 100	49.5	> 100	> 100	> 100	> 100	> 100	> 100	> 100	> 46.4	> 100	7.87	> 100	> 100	> 100	> 100	> 100
CC1=Nc2nc3ccccc3n2C(C)(C)C1	> 100	> 100	> 100	> 100	> 100	> 100	> 100	> 100	> 100	> 100	> 100	> 100	> 100	> 100	> 100	> 100	> 100
COC(=O)C1=C(C(=O)OC)SC(=C2c3ccsc3-c3sccc32)S1	> 100	> 100	> 100	> 100	> 100	> 100	> 100	> 100	> 100	> 100	> 100	> 100	> 100	> 100	98.5	52	56.2
Cc1cc(=O)oc2c(CNC(C)C(=O)O)c(O)ccc12 (centres undefined)	> 100	> 100	> 100	> 100	> 100	> 100	> 100	> 100	> 100	> 100	> 100	> 100	> 100	> 100	> 100	> 100	> 100
COc1cc(COC(=O)N2CCCCC2C(=O)O)c([N+](=O)[O-])cc1OC (centres undefined)	> 100	> 100	> 100	> 100	> 100	> 100	> 100	> 100	> 100	> 100	> 100	> 100	> 100	> 100	> 100	> 100	> 100
Oc1ccc(-c2c3ccccc3c(-c3ccc(OCCBr)cc3)c3ccccc23)cc1	54.5	> 100	> 100	97.4	59.8	96.9	43.2	44.2	33.7	42.1	69.1	90.7	> 100	33.8	53.3	82.2	34.9
CCCCOP(=O)(OCCCC)/C(C#N)=C/c1ccc(C)o1	> 100	> 100	> 100	71.3	95.5	> 100	> 100	> 100	57.6	> 100	> 100	> 100	> 100	99.2	> 100	> 100	92.3
O=C1C=C(c2c(-c3ccccc3)[nH]c3ccccc23)C(=O)N1c1ccccc1	30.6	> 100	35.3	29.9	15.7	24.5	29.7	51.4	15.8	27.9	46.4	71.4	19.6	23.9	26.8	52.8	38.6
O=C1NCC2(CCN(Cc3ccccc3)CC2)N1	> 100	> 100	> 100	> 100	> 100	> 100	> 100	> 100	> 100	> 100	> 100	> 100	> 100	> 100	> 100	> 100	> 100
C[C@@H]1CCC2[C@@H](C)[C@H](O[C@H]3O[C@@H]4O[C@@]5(C)CCC6[C@H](C)CCC([C@H]3C)[C@]64OO5)O[C@@H]3O[C@@]4(C)CCC1[C@@]23OO4 (some centres undefined)	18.6	15	17	> 100	19.2	0.326	13.4	18.4	18.3	15.9	32.3	14.2	12.7	19.1	23.8	24.2	13.3
COc1ccc(C2=NN(C(=O)c3ccccc3)C(O)(c3cc(F)c(Cl)cc3Cl)C2)cc1OC (centres undefined)	> 100	> 100	> 100	> 100	> 100	> 100	> 100	> 100	69.3	> 100	> 100	> 100	> 100	> 100	> 100	> 100	> 100
NCCCCC(N)C(=O)N1CCN(c2nc(N3CCCC3)c3nc(Cl)c(NCc4ccccc4)nc3n2)CC1 (centres undefined)	35.5	50.6	34.4	47.2	33.7	33.1	38	33.9	36.9	36.7	37.3	38.1	32.1	43.5	36.5	47.4	37.9
COc1ccc(C(=O)/C=C2\c3ccccc3C(=O)N2C)cc1	> 100	> 100	> 100	> 100	> 100	> 100	> 100	> 100	> 100	> 100	> 100	> 100	> 100	> 100	> 100	> 100	> 100
COc1ccc(-c2nc(N)c(C#N)c3c2CCSc2ccc(C)cc2-3)cc1OC	> 76.2	25.1	> 61.5	13.7	> 45.5	26.6	> 53.1	> 91.2	> 100	47.1	> 100	> 73.9	30.7	> 100	> 100	52.9	> 61
COc1cc(CNc2nc3ccccc3nc2-c2cccs2)cc(OC)c1OC	> 100	29.6	37.5	97.7	95.8	> 100	> 100	> 100	> 100	62.5	> 100	29.3	> 100	79.3	> 100	74.8	65.5
C=CC1(c2ccc3ccccc3c2)OCC(CC)(CC)CO1	64.2	38.8	46.8	48.1	65.8	31.8	57.5	52.3	51.5	46	> 100	38.8	43.2	49.1	42	41.6	49.3
